We go through ten compounds from PMC7144934, “Design, Synthesis and Biological Evaluation of Phenyl Urea Derivatives as IDO1 Inhibitors” (Molecules, 2020).

SMILES strings stand for the structures. Entries after “also recorded” stand apart in the source; their conditions may differ. Like-named read-outs stand apart in the source and are kept apart here.

Series [1] relates to IDO1. The arrangement: method as in PMID 30760888. The following applies: Figure 1; cited from earlier work.
Series [2] deals with T1, Recombinant human IDO1 (rhIDO1) (Homo sapiens, UniProt P14902).
T1 construct: made in house
T1 sequence (P14902 whole entry): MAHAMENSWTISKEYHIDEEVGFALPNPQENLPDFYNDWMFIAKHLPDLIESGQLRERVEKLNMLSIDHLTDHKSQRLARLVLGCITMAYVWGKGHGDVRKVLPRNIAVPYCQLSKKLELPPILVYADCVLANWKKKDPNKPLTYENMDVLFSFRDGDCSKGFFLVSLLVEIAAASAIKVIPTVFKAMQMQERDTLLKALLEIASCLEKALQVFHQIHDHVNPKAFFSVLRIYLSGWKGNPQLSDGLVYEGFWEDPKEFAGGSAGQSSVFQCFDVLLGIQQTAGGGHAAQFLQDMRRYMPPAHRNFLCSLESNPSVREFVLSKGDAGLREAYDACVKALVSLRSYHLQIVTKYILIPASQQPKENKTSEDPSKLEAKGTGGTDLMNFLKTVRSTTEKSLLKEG
The series is described as follows: Enzyme assay for IDO1 inhibition. The series is classed as biochemical. As to conditions: for IC50 / IDO1 inhibitory activity (in words): rhIDO1 enzyme assay; for IC50: 37 °C, 45 min.

Series [3] deals with T2, Recombinant human TDO (rhTDO) (Homo sapiens, UniProt P48775).
T2 construct: made in house
T2 sequence (P48775 whole entry): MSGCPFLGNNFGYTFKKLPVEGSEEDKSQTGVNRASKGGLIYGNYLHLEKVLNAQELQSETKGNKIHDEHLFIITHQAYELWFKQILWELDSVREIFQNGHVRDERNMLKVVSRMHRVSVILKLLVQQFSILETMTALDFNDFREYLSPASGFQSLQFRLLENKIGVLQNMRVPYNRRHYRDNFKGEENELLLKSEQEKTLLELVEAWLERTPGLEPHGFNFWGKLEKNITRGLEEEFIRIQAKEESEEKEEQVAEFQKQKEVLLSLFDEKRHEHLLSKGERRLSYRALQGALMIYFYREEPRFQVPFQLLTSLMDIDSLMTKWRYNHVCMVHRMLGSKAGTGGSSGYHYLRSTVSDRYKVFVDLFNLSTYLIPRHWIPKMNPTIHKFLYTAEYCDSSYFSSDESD
The series can be described thus: Enzyme assay for TDO inhibition. It is filed as biochemical. As to conditions: 37 °C, 45 min. The method, then: Recombinant human IDO1 and TDO were expressed and purified according to the reported procedures. The assay was performed according to the literature: A standard reaction mixture (100 µL) containing 100 mM potassium phosphate buffer (pH 6.5), 40 mM ascorbic acid (neutralized with NaOH), 200 µg/mL catalase, 20 µM methylene blue and 0.05 µM rhIDO1 or rhTDO was added to the solution containing the substrate L-tryptophan and the test sample at a determined concentration. The reaction was carried out at 37 °C for 45 min and stopped by adding 20 µL of 30% (w/v) trichloroacetic acid. After heating at 65 °C for 15 min, 100 µL of 2% (w/v) p-dimethylaminobenzaldehyde in acetic acid was added to each well. The yellow pigment derived from kynurenine was measured at 492 nm using a SYNERGY-H1 microplate reader (Biotek Instruments, Inc., Winooski, VT, USA). IC50 was analyzed using the GraphPad Prism 8.0 software (GraphPad Software, San Diego, CA, USA).

In series [4] the test system is human IDO1. Details: method as in earlier work. As to conditions: human IDO1/HEK 293 cells; read-out: IDO1 inhibitory activity IC50; cited from earlier work.
Series [5] can be described thus: Single dose pharmacokinetic study in male C57BL/6 mice. The series is classed as in vivo. The following applies: for AUC(0-inf): male, C57BL/6, mouse; for MRT inf: read-out: MRT(0–∞); for half-life: read-out: t1/2β (converted). The method, then: The animal Care and Welfare Committee of Institute of Materia Medica, Chinese Academy of Medical Sciences approved all animal care, housing, and laboratory procedures. Male C57BL/6 mice were used in the single dose pharmacokinetic studies. Compound i12 was prepared as a 3 mg/mL suspension with 0.5% CMC for oral use and was formulated as a 3 mg/mL solution with 10% DMSO in 20% HP-β-CD for intravenous injection. Sixteen mice were divided into two groups, 10 in the oral group and six in the intravenous group. After fasting 12 h with free access to water, mice were treated with a 3 mg/kg i.v. or 30 mg/kg oral dose of compound i12. Blood samples (50 µL) were collected at 5, 15, 30 min, 1, 2, 4, 6, 8, 12 and 24 h after oral administration and 2, 5, 15, 30 min, 1, 2, 4, 6, 8, 12 and 24 h after intravenous injection. After centrifugation, the plasma samples (20 µL) were precipitated by four volumes of acetonitrile. The supernatant were analyzed by liquid chromatography/tandem mass spectrometry with a Zorbax C18 column (50 mm × 2.1 mm, 3.5 µm). Compound detection was performed with the mass spectrometer in positive ionization mode by t-SIM: m/z 489.209 for compound i12. The pharmacokinetic parameters were calculated with WinNonlin software V6.3 using non-compartmental analysis (Pharsight Corporation, Mountain View, CA, USA).

Series [6] relates to mouse melanoma cells B16F10. The series is described as follows: B16F10 subcutaneous xenograft model. The series is classed as in vivo, mice. On the procedure: (§1) The mouse melanoma cells B16F10 were cultured and harvested in saline at 6 × 10^6 cells/0.2 mL volume. Cells (0.2 mL) were injected subcutaneously into male C57BL/6 mice at day 0 of the experiment, and treatment was initiated at day 1 following the mice enrolled randomly in control and experimental groups. For control group, 0.5% CMCNa was orally administered every day. The CTX group were administered CTX intraperitoneally at the dose of 100 mg/kg. Compound i12 was dissolved in 0.5% CMC-Na for oral treatment. After 17 days, the mice were sacrificed and the tumors were stripped and weighted. The tumor growth inhibition (TGI) was calculated as TGI = (1 − tumor weight treatment/tumor weight vehicle) × 100%. The statistical analysis was performed with GraphPad Prism 8.0 software and the significance level was evaluated with one-way ANOVA model.

Series [7] relates to mouse pancreatic cancer cells PAN02. The series can be described thus: PAN02 pancreatic cancer subcutaneous xenograft model. It is filed as in vivo, mice. On the procedure: as §1, with “pancreatic cancer” for “melanoma”, “PAN02” for “B16F10”, “60 mg/kg” for “100 mg/kg.”, “15” for “17”
The test system of series [8] is pathway. The arrangement: method as in PMID 30760888. The following applies: Figure 1; cited from earlier work.
The mark [9] stands for this setting: ratio of IDO1 enzyme IC50 values.

As for `C[C@@H](C(=O)Nc1ccc(Cl)cc1)C1CCC(c2ccnc3ccc(F)cc23)CC1` (some centres unmarked) [BMS-986205], in [1], the IC50 is 0.0017 µM.

For the compound `CC(C)CN(CC(C)C)c1ccc(C(CC(=O)O)C(F)(F)F)cc1NC(=O)Nc1ccc(F)cc1F` (centres unmarked) [BMS-E30, reference compound], the results for the IC50 in series [2], in series [3] and in series [4] were 8.57 µM, over 100 µM and 0.0007 µM, respectively.

Take `NS(=O)(=O)NCCNc1nonc1C(=NO)Nc1ccc(F)c(Br)c1` [Epacadostat]: in [1], the IC50 was […].

In the case of `CC1CC(C)CN(c2ccc(C(CC(=O)O)C(F)(F)F)cc2NC(=O)Nc2ccccc2)C1` (centres unmarked) [i1, 3-[4-(3,5-dimethylpiperidin-1-yl)-3-(3-phenylureido)-phenyl]-4,4,4-trifluorobutyric Acid], the melting point is 94.1 to 95.7 °C. Moreover, the IC50 in series [2] worked out at 34.1 µM. In addition, the IC50 in series [3] was over 100 µM.

Regarding `CC1CC(C)CN(c2ccc(C(CC(=O)O)C(F)(F)F)cc2NC(=O)Nc2ccc(C#N)cc2)C1` (centres unmarked) [i12, 3-[3-[3-(4-cyanophenyl)ureido]-4-(3,5-dimethylpiperidin-1-yl)-phenyl]-4,4,4-trifluorobutyric Acid], in [2] (setting [9]), the “fold improvement in IDO1 inhibitory activity compared to compound i1” value came out at 100 fold. In series [2], the “IDO1 inhibitory activity (in words)” value is recorded as “more potent IDO1 inhibitory activity than the unsubstituted i1” and the IC50 turned out to be 0.331 µM. Besides, the IC50 in series [3] was over 100 µM. Also, the “AUC(0–∞)” value in series [5] (PO 30 mg/kg, 30 mg/kg) was 12,849 h·ng/mL. Further, the AUC(0-inf) in [5] (plasma, iv, 3 mg/kg, IV 3 mg/kg) was found to be 2160 ng·h/mL. This compound also showed an AUC(0-inf) in [5] (plasma, po, 30 mg/kg, PO 30 mg/kg) of 11500 ng·h/mL. In series [5] (mouse, plasma, IV 3 mg/kg), the AUC(0-t) turned out to be 1320 ng·h/mL, the peak level (Cmax) was 6960 ng/mL, the MRT inf worked out at 8.6 h and the half-life was 7.17 h. In addition, the clearance in [5] (mouse, plasma, IV 3 mg/kg, read-out: Cl (plasma clearance)) was determined as 22.4 mL/min/kg. Moreover, in series [5] (mouse, plasma, IV 3 mg/kg, read-out: Vss), the Vd was 15.8 L/kg. In addition, in series [5] (mouse, plasma, PO 30 mg/kg), the AUC(0-t) amounted to 11500 ng·h/mL, the Cmax is 2700 ng/mL, the Tmax was 2 h and the MRT inf amounted to 8.18 h. Further, in [5] (mouse, plasma, PO 30 mg/kg), the half-life was 11.2 h. In addition, the bioavailability in series [5] (mouse, plasma, PO 30 mg/kg vs IV 3 mg/kg, read-out: F% (oral bioavailability)) was found to be 87.4%. For the same compound, the “tumor growth inhibition (TGI)” value in series [6] (15 mg/kg daily, oral, 17 days, tumor weight) amounted to 40.5%. The “body weight compared with the control group” value in [6] (i12 orally 15, 30 or 100 mg/kg, B16F10 xenograft mice) was “no obvious body weight difference; also recorded: no obvious reduction; also recorded: no significant changes”. Besides, the “tumor growth inhibition (TGI)” value in series [7] (30 mg/kg daily, oral, 15 days, tumor weight) was determined as 34.3%. In addition, in [7] (i12 orally 10, 30 or 100 mg/kg, PAN02 xenograft mice), the “body weight of each group after the treatment” value is “no obvious body weight difference”.

Take `CC1CC(C)CN(c2ccc(C(CC(=O)O)C(F)(F)F)cc2NC(=O)Nc2ccc([N+](=O)[O-])cc2)C1` (centres unmarked) [i24, 3-{4-(3,5-dimethylpiperidin-1-yl)-3-[3-(4-nitrophenyl)ureido]phenyl}-4,4,4-trifluorobutyric Acid]: in series [2] (setting [9]), the “fold more potent than compound BMS-E30 (IDO1)” value is listed as 55 fold. The IC50 was 0.157 µM in [2] and over 100 µM in series [3].

As to `Cn1cc(C[C@@H](N)C(=O)O)c2ccccc21` [indoximod], the IC50 in series [8] is 0.45 µM.

`CC1CC(C)CN(c2ccc(C(CC(=O)O)C(F)(F)F)cc2NC(=O)Cc2ccc(C#N)cc2)C1` (centres unmarked) [j1, 3-[3-[2-(4-cyanophenyl)acetylamino]-4-(3,5-dimethylpiperidin-1-yl)-phenyl]-4,4,4-trifluorobutyric Acid]: the “IDO1 inhibitory activity (in words)” value in series [2] was “no inhibitory activity”. Also, the IC50 in series [2] and in series [3] was over 100 µM in each case.

As to `CC1CC(C)CN(c2ccc(C(CC(=O)O)C(F)(F)F)cc2NC(=O)Cc2ccc(C(F)(F)F)cc2)C1` (centres unmarked) [j2, 3-{4-(3,5-dimethylpiperidin-1-yl)-3-[2-(4-trifluoromethylphenyl)-acetylamino]phenyl}-4,4,4-trifluorobutyric Acid], in [2], the “IDO1 inhibitory activity (in words)” value was “no inhibitory activity” and the half-maximal inhibitory concentration (IC50) is over 100 µM. Also, the IC50 in [3] was over 100 µM.

Turning to `CC1CC(C)CN(c2ccc(C(CC(=O)O)C(F)(F)F)cc2NC(=O)Cc2ccc([N+](=O)[O-])cc2)C1` (centres unmarked) [j3, 3-{4-(3,5-dimethylpiperidin-1-yl)-3-[2-(4-nitrophenyl)acetylamino]-phenyl}-4,4,4-trifluorobutyric Acid], in series [2], the “IDO1 inhibitory activity (in words)” value is given as “no inhibitory activity” and the IC50 is over 100 µM. The IC50 in series [3] is over 100 µM.

For orientation: IC50 means the point on the concentration scale where inhibition reaches its midpoint. Broadly, the melting point is the temperature, or range, at which the solid turns liquid. The term AUC(0-inf) denotes total exposure, with the tail of the curve extrapolated. The low end stands for less exposure, the high end for more exposure. One may read the AUC(0-t) as exposure summed from dosing to a finite time, without extrapolation to infinity. Low readings indicate low exposure, high ones high exposure. What is called Cmax is the highest concentration seen after dosing. By clearance is commonly meant the rate of elimination divided by the concentration. For orientation: Tmax means the time from dosing to the highest level. One may read the bioavailability as the share of a dose that reaches the circulation, judged against a reference dose that is usually intravenous.
